Measurements: article PMC9743426, “Expanding the Chemical Space of Drug-like Passerini Compounds: Can α-Acyloxy Carboxamides Be Considered Hard Drugs?” (ACS Medicinal Chemistry Letters, 2022)

Legend:
[1] = Hydrolytic stability in human plasma; format: in vitro ADME; conditions: substrate 10 μM, 30 min, 37 °C
Experimental: As a final point, for some of the compounds characterized by the best hepatic stability, we also evaluated them in human plasma (Table 2) and under acidic and alkaline conditions (see the Supporting Information), the latter to ascertain the stability of α-acyloxy carboxamides in the gastrointestinal tract. […] Once again, the ortho,ortho′-disubstitution of the aromatic ring is the one that gives the best metabolic stability. […]
Hydrolytic stability in human plasma
The standard incubation mixture (100 μL final volume) was carried out by dissolving the tested substrate compounds (10 μM) in DMSO (5% final volume) in preincubated plasma at 37 °C. The mixture was shaken for 30 min at 37 °C. Control incubations were carried out without substrate. Each incubation was stopped by addition of 200 μL of ice-cold acetonitrile, vortexed, and centrifuged at 13000 rpm for 10 min. The supernatants were analyzed by LC-HRMS. […]

[2] = Hydrolytic (chemical) stability in Tris-HCl buffer pH 7.4; format: physicochemical; conditions: 50 mM Tris-HCl buffer pH 7.4, incubation 30 min, without microsomes
Experimental: (§1) For all 43 compounds, a first evaluation of their chemical and metabolic stabilities toward hydrolysis was performed by incubating them in buffer under physiological conditions (50 mM Tris-HCl, pH 7.4) and in mouse liver microsomes (Table 1). This model was chosen because, similar to the human liver, both of the carboxylesterase isoforms are present. […] A more interesting trend was instead possible to observe with benzoic acids.
(§2) Hydrolytic stability in MLM and HLM
(§3) The standard incubation mixture (200 µL final volume) was carried out in a 50 mM TRIS-HCl buffer (pH 7.4) containing 150 mM KCl, tween 80 as cosolvent (0.8 mg/mg protein), and the substrate (10 μM). After pre-equilibration of the mixture, an appropriate volume of MLM or HLM suspension was added to give a final protein concentration of 1.0 mg/mL. The mixture was shaken for 30 minutes at 37 °C. Control incubations were carried out without the presence or microsomes or in pure acetonitrile. Each incubation was stopped by the addition of 200 µL ice-cold acetonitrile, vortexed and centrifuged at 13000 rpm for 5 min. The supernatants were analyzed by LC-HRMS. […]

[3] = Hydrolytic stability in mouse liver microsomes (MLM); format: in vitro ADME; conditions: 30 min; for Residual substrate percentage, MLM: mouse liver microsomes 1.0 mg/mL protein, substrate 10 μM, 37 °C
Experimental: as §1, §2, §3

[4] = Hydrolytic stability in human liver microsomes (HLM); format: in vitro ADME; conditions: 30 min; for Residual substrate percentage, HLM: human liver microsomes 1.0 mg/mL protein, substrate 10 μM, 37 °C
Experimental: This was made in light of the fact that the overall metabolizing capability of murine hepatic enzymes, including carboxylesterases, is supposed to be higher compared to the human ones.[17]
as §2, §3

[5] = system: Pseudomonas aeruginosa; design: method as in doi:10.1155/2013/125959; conditions: mixture of two enantiomers and a meso form; cited from earlier work
[6] = system: P. aeruginosa ATCC 9027; test: Antibacterial activity, agar well-diffusion method; format: cell-based, Pseudomonas aeruginosa; conditions: for Antibacterial activity (in words): P. aeruginosa ATCC 9027, 1 mg/mL; for Inhibition zone: P. aeruginosa ATCC 9027, 1 mg/mL in DMSO, 55 μL per 6 mm well, 24 h at 37 °C, average ± SD
Excerpt: Recently an article presented the synthesis of 1,3-phenylenebis(2-(cyclohexylamino)-2-oxoethane-1,1-diyl) dibenzoate (99) (Figure 6), obtained with a double Passerini reaction starting from 1,3-benzenedicarbaldehyde. […] According to our studies, compounds 99 is expected to suffer from metabolic instability, whereas the new analogue 100 designed by us (Figure 6), containing methyl groups at the two ortho positions in each benzoate group, should be metabolically stable. We then synthesized the two compounds and evaluated their antibacterial activities on P. aeruginosa and their hydrolytic stabilities. The in vitro antibacterial activities of 99 and 100 were evaluated against the P. aeruginosa ATCC 9027 strain. […] No inhibition halos were observed around the wells containing DMSO alone.
The in vitro antibacterial activity of the compounds was assayed against the Gram-negative P. aeruginosa
ATCC 9027 by the agar well-diffusion method. Compounds 99, 100, and gentamycin were dissolved in
DMSO (Scharlab, Barcelona, ES) and tested at the concentration of 1 mg/mL. For comparison, gentamycin
was used as a negative control of growth and DMSO as positive control of growth. The strain, obtained from
the American Type Culture Collection (ATCC, Manassas, VA, United States) and stored at −80 °C in Brain
Heart Infusion (Scharlab, Barcelona, ES) with 25% glycerol (Scharlab, Barcelona, ES), was cultured onto
Tryptic Soy Agar (Scharlab, Barcelona, ES) at 37°C for 16 h.
A bacterial suspension (ca. 1.5×10^8 Colony Forming Unit per ml) was prepared in isotonic saline solution
(NaCl 0,9%) and spread onto Muller-Hinton agar (Scharlab, Barcelona, ES) surfaces using a sterile swab.
Wells (6 mm diameter) were punched using a sterile punch cutter and filled with 55 μL of each sample. Plates
were left at room temperature for 1h to allow each sample to diffuse into the agar and then incubated at 37 °C
for 24 h. Finally, the inhibition zone diameters were measured.
The assay was carried out in triplicate and repeated twice. Results were expressed as average values ± standard

Row | Compound | Residual substrate percentage, plasma [1] [%] | Residual substrate percentage, buffer [2] [%] | Residual substrate percentage, MLM [3] [%] | Hydrolysis of the ester group in mouse liver microsomes (in words) [3] | Residual substrate percentage, HLM [4] [%] | Hydrolytic stability in human liver microsomes (in words) [4] | Antibacterial activity against Pseudomonas aeruginosa (in words) [5] | Antibacterial activity (in words) [6] | Inhibition zone [6] [mm]
1 | Cc1cccc(C)c1C(OC(=O)c1ccccc1)C(=O)NC(C)(C)C (stereo not shown) [Compound 57] | 90 | >99 | 3 | rapidly degraded | 73 | stable | – | – | –
2 | CC(C)(C)NC(=O)C(OC(=O)c1ccccc1)c1ccccc1-c1ccccc1 (stereo not shown) [Compound 58] | 90 | >99 | 2 | rapidly degraded | >99 | stable | – | – | –
3 | Cc1cccc(C)c1C(=O)OC(C(=O)NC(C)(C)C)c1ccccc1 (stereo not shown) [Compound 78, 2-(tert-butylamino)-2-oxo-1-phenylethyl 2,6-dimethylbenzoate] | >99 | >99 | >99 | – | >99 | excellent stability | – | – | –
4 | Cc1cccc(Cl)c1C(=O)OCC(=O)NC(C)(C)C [Compound 80] | >99 | 98 | 97 | – | >99 | excellent stability | – | – | –
5 | Cc1ccc(Br)c(C)c1C(=O)OCC(=O)NC(C)(C)C [Compound 98] | >99 | >99 | >99 | extremely stable | >99 | excellent stability | – | – | –
6 | O=C(OC(C(=O)NC1CCCCC1)c1cccc(C(OC(=O)c2ccccc2)C(=O)NC2CCCCC2)c1)c1ccccc1 (stereo not shown) [Compound 99, 1,3-phenylenebis(2-(cyclohexylamino)-2-oxoethane-1,1-diyl) dibenzoate, reference compound] | 93 | >99 | 5 | high instability | 47 | hydrolytic stability increased | good antibacterial activity | moderate antibacterial activities | 10.2 ± 1.2
7 | Cc1cccc(C)c1C(=O)OC(C(=O)NC1CCCCC1)c1cccc(C(OC(=O)c2c(C)cccc2C)C(=O)NC2CCCCC2)c1 (stereo not shown) [Compound 100] | 84 | >99 | 95 | completely stable | >99 | completely stable | – | moderate antibacterial activities | 10.4 ± 1.3
8 | gentamycin | – | – | – | – | – | – | – | – | 22.3 ± 1.7
